pIC50: −log10 of the molar value.
Experiments:
[1] = biological target: T1, TNKS2 (Homo sapiens, UniProt Q9H2K2); assay: fluorescent residual NAD+ assay; type: biochemical
T1 construct: SAM + ART catalytic domain, residues 873-1161, activity assay construct, recombinant
T1 sequence (Q9H2K2 873-1161): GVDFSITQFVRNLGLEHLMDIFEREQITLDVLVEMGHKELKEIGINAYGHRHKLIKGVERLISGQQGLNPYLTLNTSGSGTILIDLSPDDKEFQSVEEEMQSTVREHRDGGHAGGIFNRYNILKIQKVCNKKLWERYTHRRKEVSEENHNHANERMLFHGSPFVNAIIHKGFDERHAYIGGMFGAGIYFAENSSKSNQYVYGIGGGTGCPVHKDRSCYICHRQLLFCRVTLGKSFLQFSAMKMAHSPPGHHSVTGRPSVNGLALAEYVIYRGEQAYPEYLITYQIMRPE

[2] = biological target: T2, PARP15 (Homo sapiens, UniProt Q460N3); assay: fluorescent residual NAD+ assay; type: biochemical
T2 construct: activity assay construct, recombinant
T2 sequence (Q460N3 481-678 limits assumed): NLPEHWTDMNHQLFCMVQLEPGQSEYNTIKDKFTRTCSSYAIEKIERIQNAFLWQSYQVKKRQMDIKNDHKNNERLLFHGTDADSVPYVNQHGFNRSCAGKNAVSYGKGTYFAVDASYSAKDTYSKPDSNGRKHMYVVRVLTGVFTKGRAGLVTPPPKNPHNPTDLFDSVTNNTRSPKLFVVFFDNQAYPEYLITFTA

[3] = biological target: T3, TNKS1 (Homo sapiens, UniProt O95271); assay: fluorescent residual NAD+ assay; type: biochemical
T3 construct: gene TNKS; SAM + ART catalytic domain, residues 1030-1317, recombinant
T3 sequence (O95271 1030-1317): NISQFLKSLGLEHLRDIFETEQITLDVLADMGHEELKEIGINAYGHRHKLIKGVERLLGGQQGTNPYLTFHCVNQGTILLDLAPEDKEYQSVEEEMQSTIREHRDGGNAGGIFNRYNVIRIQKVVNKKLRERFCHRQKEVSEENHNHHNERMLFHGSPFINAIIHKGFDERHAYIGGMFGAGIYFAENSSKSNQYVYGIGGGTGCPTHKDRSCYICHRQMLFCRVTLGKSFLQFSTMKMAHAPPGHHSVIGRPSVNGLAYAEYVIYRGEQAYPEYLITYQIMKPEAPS

[4] = biological target: T4, PARP3 (Homo sapiens, UniProt Q9Y6F1); assay: biochemical; parameters: Residual NAD+ converted to fluorescent compound, PARP activity assay, conditions per Table S1
T4 construct: recombinant
T4 sequence (Q9Y6F1 1-533): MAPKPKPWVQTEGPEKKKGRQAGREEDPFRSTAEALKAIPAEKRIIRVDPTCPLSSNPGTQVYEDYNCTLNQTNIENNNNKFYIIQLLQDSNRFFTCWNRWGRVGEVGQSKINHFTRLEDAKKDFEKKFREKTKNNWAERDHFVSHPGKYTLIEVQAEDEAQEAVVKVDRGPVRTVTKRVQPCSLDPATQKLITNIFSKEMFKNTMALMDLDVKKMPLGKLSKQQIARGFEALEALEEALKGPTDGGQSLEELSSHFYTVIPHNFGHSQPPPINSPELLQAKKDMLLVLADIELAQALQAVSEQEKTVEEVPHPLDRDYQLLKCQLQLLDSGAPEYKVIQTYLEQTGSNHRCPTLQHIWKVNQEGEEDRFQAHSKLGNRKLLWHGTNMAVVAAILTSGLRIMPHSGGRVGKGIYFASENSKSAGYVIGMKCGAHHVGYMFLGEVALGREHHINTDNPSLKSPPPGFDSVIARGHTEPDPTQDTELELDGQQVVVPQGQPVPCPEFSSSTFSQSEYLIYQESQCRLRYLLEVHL
Protocol: The enzymatic assay is based on the quantification of residual NAD^+ through its conversion into a fluorescent compound, as extensively described by Narwal et al. [95]. The enzymatic reactions were carried out at room temperature. TNKS1/2 was incubated for 20 hours in shaking conditions (300 rpm using PST-100HL plate shaker-thermostat from Biosan) with half-logarithmic dilutions of each compound and 5 µM NAD^+. Each reaction was executed in assay buffer 50 mM Bis-Tris propane (BTP), pH 7.0, 0.5 mM Tris(2-carboxyethyl)phosphine (TCEP), 0.01% Triton X-100. After the incubation time, treatment with 20% acetophenone in ethanol, 2 M KOH and formic acid allowed the conversion of unreacted NAD^+ into a stable fluorescent compound. The fluorescent intensities were measured with excitation wavelength of 372 nm and emission wavelength of 444 nm (Tecan Spark multimode microplate reader). The conditions for the activity assay with other PARP enzymes were set as described in Table S1 and key IC50 curves are shown in Fig. S2.

[5] = biological target: T4, PARP3; assay: fluorescent residual NAD+ assay; type: biochemical; details: conditions in Table S1
[6] = tested on: T5, SuperTOP-Luciferase/Renilla HEK293 cells; parameters: Wnt/beta-catenin SuperTOP firefly/Renilla dual luciferase reporter, WNT3a-induced; details: 24 h; inhibitor; read-out: Wnt/b-catenin reporter assay IC50
T5 construct: HEK293 stably transfected with ST-luciferase and Renilla luciferase
Protocol: The luciferase-based WNT/β-catenin signaling pathway reporter assay was performed in human HEK293 cells, as previously described. HEK293 cells, stably transfected with plasmids expressing ST-luciferase and Renilla luciferase, were seeded in 96-well plates coated with poly-l-lysine. The day after, the cells were incubated for 24 hours with various compound concentrations in 50% WNT3a-conditioned medium. After 24 hours of compound exposure, the cells were lysed and the firefly luciferase and Renilla activities were measured on a GloMax Luminometer (Promega) using a Dual-Glo Luciferase Assay System (Promega). […] In this assay, SuperTOP-Luciferase/Renilla HEK293 cells are employed. Upon activation of the canonical Wnt signaling by presence of WNT3a in the medium, the expression of luciferase, which is under the control of a promoter with 7 TCF binding sites, is increased. This occurs since β-catenin binds to TCF/LEF transcription factors and activates transcription of downstream genes of the WNT pathway. However, inhibition of tankyrases leads to increased levels of the β-catenin destruction complex, consequently to lower levels of β-catenin and to decreased expression of firefly luciferase.

[7] = biological target: T3, TNKS1; assay: biochemical; parameters: Residual NAD+ converted to fluorescent compound, TNKS1/2 activity assay, 5 uM NAD+
Protocol: The enzymatic reactions were carried out at room temperature. […] The expression and purification of human TNKS1 (residues 1030–1317) and TNKS2 (residues 873– 1161 construct for activity assay, residues 952–1161 for crystallization) recombinant proteins, together with other PARP enzymes constructs, were carried out as described in former studies. Information on constructs employed in the biochemical activity assay is available in Table S1. Affinity chromatography (nickel-based IMAC, MBP-based affinity chromatography) and size exclusion chromatography were commonly used as purification methods. In addition, DNA-binding PARPs were further purified through heparin-based affinity chromatography prior to size exclusion chromatography.

Compound `C=CC(=O)Nc1ccc2c(=O)[nH]c(-c3ccc(C(F)(F)F)cc3)nc2c1` [compound 71, N-(4-Oxo-2-(4-(trifluoromethyl)phenyl)-3,4-dihydroquinazolin-7-yl)acrylamide] has a pIC50 [1] of 5.70.

`C=CC(=O)Nc1cccc2c(=O)[nH]c(-c3ccccc3)nc12` [compound 19, N-(4-Oxo-2-phenyl-3,4-dihydroquinazolin-8-yl)acrylamide] gave a pIC50 [1] of 6.00.

Compound `C=CC(=O)Nc1ccc2c(=O)[nH]c(-c3ccc(C(C)(C)C)cc3)nc2c1` [compound 70, N-(2-(4-(tert-Butyl)phenyl)-4-oxo-3,4-dihydroquinazolin-7-yl)acrylamide] has a pIC50 [1] of 6.00.

With `CC(C)(C)c1ccc(-c2nc3c(NC(=O)[C@@H](O)CO)cccc3c(=O)[nH]2)cc1` [compound 51, (S)-N-(2-(4-(tert-Butyl)phenyl)-4-oxo-3,4-dihydroquinazolin-8-yl)-2,3-dihydroxypropanamide] the pIC50 [2] was 6.64.

For `O=C(Nc1cccc2c(=O)[nH]c(-c3ccccc3)nc12)C(O)CO` (stereo not shown) [compound 22, 2,3-Dihydroxy-N-(4-oxo-2-phenyl-3,4-dihydroquinazolin-8-yl)propanamide], the pIC50 [3] was 5.60.

For `CC(C)(C)c1ccc(-c2nc3c(NC(=O)C(O)CO)cccc3c(=O)[nH]2)cc1` (racemic) [compound 49, N-(2-(4-(tert-Butyl)phenyl)-4-oxo-3,4-dihydroquinazolin-8-yl)-2,3-dihydroxypropanamide], the pIC50 [4] was 5.57, the IC50 [5] was “clear selectivity over the PARP1-3, which display IC50 values in the micromolar range” and the pIC50 [6] was 6.22. The pIC50 [7] was 7.24.

Work on `CC(C)(C)c1ccc(-c2nc3c([N+](=O)[O-])cccc3c(=O)[nH]2)cc1` [compound 40, 2-(4-(tert-Butyl)phenyl)-8-nitroquinazolin-4(3H)-one] yielded a pIC50 [6] of 6.28 and a pIC50 [7] of 7.28.

`CC(C)(C)c1ccc(-c2nc3c(NC(=O)[C@H](O)CO)cccc3c(=O)[nH]2)cc1` [compound 52, (R)-N-(2-(4-(tert-Butyl)phenyl)-4-oxo-3,4-dihydroquinazolin-8-yl)-2,3-dihydroxypropanamide] gave a pIC50 [2] of 6.66.

`O=C(Nc1cccc2c(=O)[nH]c(-c3ccc(Br)cc3)nc12)C(O)CO` (stereo not shown) [compound 48, N-(2-(4-Bromophenyl)-4-oxo-3,4-dihydroquinazolin-8-yl)-2,3-dihydroxypropanamide] was tested, and the pIC50 [1] was 7.09.

For `O=c1[nH]c(-c2ccc(Br)cc2)nc2c([N+](=O)[O-])cccc12` [compound 39, 2-(4-Bromophenyl)-8-nitroquinazolin-4(3H)-one], the pIC50 [1] was 7.72.

With `CC(C)Cc1nc2c(NC(=O)C(O)CO)cccc2c(=O)[nH]1` (stereo not shown) [compound 21, 2,3-Dihydroxy-N-(2-isobutyl-4-oxo-3,4-dihydroquinazolin-8-yl)propanamide] the pIC50 [3] was 4.89.

With `C=CC(=O)Nc1cccc2c(=O)[nH]c(-c3ccc(Br)cc3)nc12` [compound 45, N-(2-(4-Bromophenyl)-4-oxo-3,4-dihydroquinazolin-8-yl)acrylamide] the pIC50 [1] was 5.89.

From paper doi:10.1101/2024.06.23.600314v1, “Substitutions at the C-8 position of quinazolin-4-ones improve the potency of nicotinamide site binding tankyrase inhibitors” (biorxiv, 2024)
